Laboratory results taken from BigSolDB 2.1.

CCS(=O)(=O)CCn1c([N+](=O)[O-])cnc1C
solubility (mole fraction)
Settings	278.15 K	283.15 K	288.15 K	293.15 K	298.15 K	303.15 K	308.15 K	313.15 K	318.15 K	323.15 K
in 2-butoxyethanol	0.00191	0.00214	0.00276	0.00372	0.00446	0.0054	0.00687	0.00826	0.0106	0.0133
in 2-ethoxyethanol	0.00356	0.00437	0.00526	0.00647	0.00792	0.00957	0.012	0.0147	0.0181	0.0222
in 2-methoxyethanol	0.00839	0.0102	0.0118	0.0145	0.0175	0.0209	0.0257	0.0314	0.0377	0.0462
in 2-propoxyethanol	0.0022	0.00261	0.00329	0.00429	0.00513	0.00622	0.00778	0.00967	0.0123	0.0154
in DMAc	0.0509	0.0571	0.0655	0.0745	0.083	0.0944	0.107	0.121	0.136	0.154
in DMF	0.0454	0.0521	0.06	0.0691	0.0787	0.0905	0.104	0.119	0.134	0.152
in NMP	0.0704	0.0804	0.089	0.0987	0.109	0.122	0.137	0.15	0.167	0.183
in acetone	0.00866	0.011	0.0133	0.0161	0.0195	0.0233	0.028	0.0348	0.0426	0.0517
in ethanol	0.000263	0.000375	0.000479	0.000665	0.000836	0.0012	0.0016	0.00207	0.00277	0.00377
in ethyl acetate	0.00334	0.00412	0.00488	0.0057	0.00689	0.00825	0.0099	0.0118	0.0141	0.0168
in methanol	0.000928	0.00119	0.00157	0.00197	0.00263	0.00345	0.00448	0.00597	0.00785	0.0104
in methyl acetate	0.00557	0.00673	0.00791	0.0095	0.0114	0.0134	0.0159	0.0188	0.0223	0.0257
in n-butyl acetate	0.00199	0.00235	0.0029	0.00358	0.00421	0.00513	0.00617	0.0074	0.00898	0.0107
in n-propyl acetate	0.00255	0.00314	0.00377	0.00456	0.00543	0.00659	0.00783	0.00948	0.0114	0.0135
